Measurements published in US20090246152A1, “NARACTIN COMPOSITIONS FOR THE INHIBITION OF REACTIVE OXYGEN SPECIES” (Nu Skin International, Inc., priority 2008, published 2009).

Key:
arNOX [1] = test: arNOX inhibition, superoxide-dependent reduction of ferric cytochrome c with serum or buffy coats (Table 1); format: biochemical; details: 25 μg/ml
Procedure: Superoxide Production By Buffy Coats: Buffy coats, a mixture of lymphocytes and platelets. Such buffy coats are commercially available from, for example, Rockland ImmunoChemicals (Gilbertsville, Pa.). The blood samples were maintained at 4° C. prior to collection and assay. Ca. 10^7 cells were added to each assay. Cell numbers were determined using a hemocytometer.
Reduction of ferric cytochrome c by superoxide was employed as a standard measure of superoxide formation (Mayo, L. A. and Cumutte, J. (1990) Meth. Enzyme. 186, 567-575. 7. Butler, J, Koppenol, W. H. and Margollash, E. (1982) J. Biol. Chem. 257, 10747). This is a widely accepted method when coupled to superoxide dismutase inhibition for the measurement of superoxide generation. The assay consists of 150 μl serum or 40 μl buffy coats in PBSG buffer (8.06 g NaCl, 0.2 g KCl, 0.18 g Na2HPO4, 0.26 g KH2PO4, 0.13 g CaCl2, 0.1 g MgCl2 1.35 g glucose dissolved in 1000 ml deionized water, adjusted to pH 7.4, filtered and stored at 4° C.) Rates were determined using an SLM Aminco DW-2000 spectrophotometer (Milton Roy, Rochester, N.Y., USA) in the dual wave length mode of operation with continuous measurements over 1 min every 1.5 min. After 45 min, test compounds were added and the reaction was continued for 45 min. After 45 min. a millimolar extinction coefficient of […] was used for reduced ferricytochrome c. Extracts were made of the compounds in water unless otherwise indicated.

arNOX [2] = test: arNOX activity of saliva (person), ferricytochrome c reduction; format: biochemical, human; details: for inhibition of arNOX activity of saliva: 1 mg/ml, saliva from person; for augmentation of low activity N. tazetta powder: FIGS. 1a and 1b; for arNOX inhibition (result in words): substance or extract alone
Procedure: Of the mixture, 60 μl was added to at total of three ml of assay mixture containing saliva as the arNOX activity source.
The assay consists of 150 μl serum or 40 μl buffy coats in PBSG buffer (8.06 g NaCl, 0.2 g KCl, 0.18 g Na2HPO4, 0.26 g KH2PO4, 0.13 g CaCl2, 0.1 g MgCl2 1.35 g glucose dissolved in 1000 ml deionized water, adjusted to pH 7.4, filtered and stored at 4° C.) Rates were determined using an SLM Aminco DW-2000 spectrophotometer (Milton Roy, Rochester, N.Y., USA) in the dual wave length mode of operation with continuous measurements over 1 min every 1.5 min. After 45 min, test compounds were added and the reaction was continued for 45 min. After 45 min. a millimolar extinction coefficient of 19.1 cm^−1 was used for reduced ferricytochrome c. Extracts were made of the compounds in water unless otherwise indicated.

`CC1=C(/C=C/C(C)=C/C=C/C(C)=C/C=C/C=C(C)/C=C/C=C(C)/C=C/C2=C(C)C(=O)[C@@H](O)CC2(C)C)C(C)(C)C[C@H](O)C1=O` [Natural astaxanthin, astaxanthin] was tested, and the “ArNOX ACTIVITY % OF NO ADDITION” value (arNOX [1]; Ethanol) was 62%.
`O=C(NO)c1ccccc1O` [SHAM, salicyl hydroxamate] was tested, and the “inhibition of arNOX activity of saliva” value (arNOX [2]) was “greater than 90%”, the “augmentation of low activity N. tazetta powder” value (arNOX [2]) was “notably decreased arNOX activity” and the “arNOX activity after addition to N. tazetta powder extract” value (arNOX [2]; saliva of person, FIG. 1a) was “nearly complete inhibition”. For the same molecule, the “concentration at which inhibition of arNOX activity is largely complete” value (arNOX [2]; saliva, FIG. 7) was 11 mg/mL.
`O=C(O)c1ccccc1O` [Salicylic acid, salicylic acid] was tested, and the “inhibition of arNOX activity of saliva” value (arNOX [2]) was “about 50%” and the “arNOX inhibition (result in words)” value (arNOX [2]) was “found to inhibit arNOX activity”.
For `CC(=O)Oc1ccccc1C(=O)O` [aspirin, reference compound], the “arNOX inhibition (result in words)” value (arNOX [2]) was “did not inhibit arNOX activity”.
In the case of `OCc1ccccc1O[C@@H]1O[C@H](CO)[C@@H](O)[C@H](O)[C@H]1O` [salicin], the “augmentation of arNOX inhibition of mixtures of Schizandra chinensis powder and N. tazetta powder/extract” value (arNOX [2]; 1 mg/ml salicin, FIGS. 10a, 10b) is reported as “active in augmenting the arNOX inhibition”, the “active concentration relative to SHAM (Naractin 1) or salicylic acid (Naractin 2)” value (arNOX [2]; FIG. 9) is reported as “active at a ten-fold lower concentration” and the “augmentation of low activity N. tazetta powder” value (arNOX [2]) is reported as “notably decreased arNOX activity”. The “concentration at which maximum inhibition of arNOX activity is achieved” value (arNOX [2]; saliva, FIG. 9) was 1 mg/mL and the “arNOX inhibition (result in words)” value (arNOX [2]) was “active as a single agent”.
In the case of `CC1=C(/C=C/C(C)=C/C=C/C(C)=C/C=C/C=C(C)/C=C/C=C(C)/C=C/C2=C(C)CCCC2(C)C)C(C)(C)CCC1` [β-Carotene], the “ArNOX ACTIVITY % OF NO ADDITION” value (arNOX [1]; Ethanol) is reported as 68% and the “ArNOX ACTIVITY % OF NO ADDITION” value (arNOX [1]; Water) is reported as 28%.
